Like-named read-outs stand apart in the source and are kept apart here.
Legend:
[1] = test system: luciferin/luciferase luminescent reactions; settings: for Max RLU / Max Time: 1 mM in ATP luminescent reagent; for Max RLU%: relative to the reaction system without pyrophosphoric acid (no PPi)
Description: To a 5 ml aliquot of this reagent, pyrophosphoric acid (Wako Purechemical Industries, Ltd.) was added to give a final concentration of 1 mM. Subsequently, ATP standard reagent (ATP concentration = 1 x 10^-12 M) included in the kit was dispensed into a microtiter plate at 100 µl/well. […] The same operations were performed on ATP luminescent reagent without pyrophosphoric acid. Further, ATP luminescent reagent to which potassium pyrophosphate or sodium pyrophosphate was added at a final concentration of 1 mM instead of pyrophosphoric acid was also prepared, and the above-described operations were performed.

[2] = biological target: T1, luciferase standard enzyme (Photinus pyralis, UniProt P08659); settings: 2 mM; for Max RLU / Max Time: with 2 mM sodium diethyldithiocarbamate, 10% glycerol; for Max RLU%: relative to the system without pyrophosphoric acid (no PPi)
T1 sequence (P08659 whole entry): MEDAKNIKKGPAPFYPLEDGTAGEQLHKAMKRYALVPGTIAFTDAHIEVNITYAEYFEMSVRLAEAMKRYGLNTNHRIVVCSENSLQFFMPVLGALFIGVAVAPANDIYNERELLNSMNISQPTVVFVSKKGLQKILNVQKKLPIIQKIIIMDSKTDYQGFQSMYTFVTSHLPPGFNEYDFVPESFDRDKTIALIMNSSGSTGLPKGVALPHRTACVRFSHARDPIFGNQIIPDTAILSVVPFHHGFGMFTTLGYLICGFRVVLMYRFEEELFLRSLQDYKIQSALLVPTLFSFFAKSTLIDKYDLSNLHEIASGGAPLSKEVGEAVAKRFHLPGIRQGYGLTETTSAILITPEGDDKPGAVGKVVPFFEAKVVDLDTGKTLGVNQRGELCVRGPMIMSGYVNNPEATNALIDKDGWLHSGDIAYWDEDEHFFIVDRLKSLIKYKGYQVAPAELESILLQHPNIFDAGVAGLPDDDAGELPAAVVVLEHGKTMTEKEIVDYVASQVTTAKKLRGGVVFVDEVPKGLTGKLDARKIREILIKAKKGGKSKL
Description: A "luciferase luminescent reagent" containing 20 mM tricine, 1.07 mM (MgCO3)4Mg(OH)2.5H2O, 2.67 mM magnesium sulfate, 0.1 mM EDTA, 470 µM luciferin and 530 µM adenosine triphosphate (ATP), pH 7.8 was prepared in accordance with the formulation described in the instructions included in "PicaGene Luminescent Kit" (Toyo Ink Manufacturing Co., Ltd.; product No. PGL100), except that 270 µM CoA and 33.3 mM DTT (thiol reagents) mentioned in the instructions were not added. […] In both reagents thus prepared, glycerol (final concentration: 10%) was allowed to co-exist in order to promote stabilization of luciferase enzyme.
A luciferase enzyme solution (100 ng/ml) was prepared by diluting "luciferase standard enzyme (10 µg/ml)" included in "PicaGene Luminescent Kit" (Toyo Ink Manufacturing Co., Ltd.; product No. PGL100) with "PicaGene Cell Lysis Reagent LUC" (Toyo Ink Manufacturing Co., Ltd.; product No. PGC50). 10 µl of this luciferase enzyme solution was taken into a cuvette of a luminometer (Berthold, LB9506). First, 100 µl of the "luciferase luminescent reagent" prepared above was added to the enzyme solution. Immediately after the addition, the resulting mixed solution was loaded onto the luminometer, and the quantity of light emitted (RLU/sec) was measured for the initial 200 seconds at intervals of 25 seconds. Then, the quantity of light emitted was measured in the same manner using the "luciferase luminescent reagent (+improvement)".

luciferase enzyme = test: ATP assay, time course of light emission with ATP luminescent reagent (Example 3, microtiter plate, 23°C); assay type: biochemical; settings: 2 mM, added as organic sulfur reagent
From the text: Then, the above-described operations were repeated.

[3] = biological target: T1, luciferase standard enzyme; settings: 1.5mM PPiK; relative to w/o pyrophosphoric acid
Description: A "luciferase luminescent reagent" containing 20 mM tricine, 1.07 mM (MgCO3)4Mg(OH)2.5H2O, 2.67 mM magnesium sulfate, 0.1 mM EDTA, 33.3 mM DTT, 470 µM luciferin, 270 µM CoA and 530 µM adenosine triphosphate (ATP), pH 7.8 was prepared in accordance with the formulation described in the instructions included in "PicaGene Luminescent Kit" (Toyo Ink Manufacturing Co., Ltd.; product No. PGL100). […] Further, glycerol and DTT were allowed to co-exist in each of the above luminescent reagents at final concentrations of 10% and 1 mM, respectively, in order to promote the stabilization of luciferase enzyme.
A luciferase enzyme solution (100 ng/ml) was prepared by diluting "luciferase standard enzyme (10 µg/ml)" included in "PicaGene Luminescent Kit" (Toyo Ink Manufacturing Co., Ltd.; product No. PGL100) with "PicaGene Cell Lysis Reagent LUC" (Toyo Ink Manufacturing Co., Ltd.; product No. PGC50). 10 µl of this luciferase enzyme solution was dispensed into each well of a microtiter plate. Subsequently, 100 µl of the above-described luminescent reagent was added to the enzyme solution in each well. […] Since luciferin/luciferase luminescent reactions are greatly affected by temperature, all operations and measurements with a luminometer were performed in a thermostatic chamber set at 23°C.
Then, the above-described operations were repeated. […]

SMILES | Max RLU [1] [RLU] | Max Time [1] [min] | initial luminescence ([1]; 1 mM, relative to the initial luminescence with the ATP luminescent reagent) [%] | Max RLU% ([1]; 1 mM) [%] | time at which the quantity of light emitted reached the maximum value ([1]; after the start of the measurement) [min] | Max RLU [2] [RLU] | Max Time [2] [min] | Max RLU% [2] [%] | effect on the stabilization of luminescent reactions (luciferase enzyme) | Max RLU% [3] [%]
O=P(O)(O)OP(=O)(O)O [PPi, pyrophosphoric acid] | 30874.3 | 5 | ≤ 50 | 48.9 | 5 | 67904.5 | 6 | 55.4 | – | –
CCN(CC)C(=S)[S-].[Na+] [organic sulfur reagent, sodium diethyldithiocarbamate] | – | – | – | – | – | – | – | – | no effect on the stabilization of luminescent reactions | –
O=P([O-])([O-])OP(=O)([O-])[O-].[Na+].[Na+].[Na+].[Na+] [PPiNa, sodium pyrophosphate] | 15275.5 | 25 | – | 24.2 | – | 30290.8 | 12 | 24.7 | – | –
O=P([O-])([O-])OP(=O)([O-])[O-].[K+].[K+].[K+].[K+] [PPiK, potassium pyrophosphate] | 16800.3 | 15 | – | 26.6 | – | 31448.0 | 12 | 25.6 | – | 27.5

Source: patent publication EP1793002A1 (priority 2004, dated 2006)
